Source: ChEMBL document CHEMBL4699626, “Potential α-glucosidase inhibitor from Hylotelephium erythrostictum” (Bioorg Med Chem Lett, 2020)
Calls of active or inactive are those of the source. The rule behind the calls is not given here.

Columns and labels:
[1] = Inhibition of alpha-glucosidase (unknown origin) using p-nitrophenyl-alpha-D-glucopyranoside as substrate
[2] = Competitive inhibition of alpha-glucosidase (unknown origin) by Dixon plot analysis; set-up: species or system Homo sapiens
[3] = species: Homo sapiens; assay: Competitive inhibition of alpha-glucosidase (unknown origin) assessed as increase in Km with constant Vmax by Lineweaver-Burk plot analysis
[4] = species: Homo sapiens; assay: Potency index, ratio of Acarbose IC50 to test compound IC50 for alpha-glucosidase (unknown origin)
[5] = Inhibition of alpha-glucosidase (unknown origin); set-up: species or system Homo sapiens
[6] = Inhibition of Saccharomyces cerevisiae alpha-glucosidase assessed as decrease in release of p-nitrophenol using pNPG as substrate preincubated for 2 hrs followed by substrate addition by spectrophotometric method

`O=c1c(O)c(-c2ccc(O)cc2)oc2cc(O)cc(O)c12` [KAEMPFEROL] showed an IC50 ([1]; read-out: IC50) of 420 µM.

With `COC1(c2ccc(O)c(O)c2)Oc2cc(O)cc(O)c2C1=O` (centres undefined) the IC50 ([1]; read-out: IC50) was 1.8 µM, the Ki [2] was 0.709 µM and the inhibition [3] was “Active”. It also gave a Ratio IC50 [4] of 457.

In the case of `COc1cc(OC)c2c(c1)OC(OC)(c1ccc(OC)c(OC)c1)C2=O` (centres undefined), the IC50 [1] is reported as “Not Active”.

With `COc1ccc(-c2oc3cc(O)cc(O)c3c(=O)c2O)cc1` [KAEMPFERIDE] the IC50 [5] was 647 µM.

In the case of `COc1cc(O)c2c(=O)c(O)c(-c3ccc(O)cc3)oc2c1` [RHAMNOCITRIN], the IC50 ([1]; read-out: IC50) is reported as 731 µM.

With `O=c1cc(-c2ccc(O)cc2)oc2cc(O)cc(O)c12` [APIGENIN] the IC50 [6] was 365 µM.
